Measurements reported in ChEMBL document CHEMBL1201862, “PubChem BioAssay data set” (2004).
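1) Cells in 96-well plates. 2) Compound, 48 h, 5 concentrations. 3) Linear interpolation between surrounding doses. 4) Unreached endpoint = highest concentration. The concentration for 50% growth inhibition is given as GI50.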 Activity calls are given as the source filed them. Cut-off read from the data, not from the text of the source: active = GI50 up to about 1.1 µM and inactive = higher.

Legend:
Test in all cases: inhibition of tumour cell growth, NCI panel, 48 h
[1] = tested on: ACHN
[2] = tested on: CCRF-CEM
[3] = tested on: HL-60
[4] = tested on: IGROV-1
[5] = tested on: M14
[6] = tested on: Malme-3M
[7] = tested on: OVCAR-3
[8] = tested on: OVCAR-5
[9] = tested on: SF-268
[10] = tested on: SF-539
[11] = tested on: SK-MEL-28
[12] = tested on: SK-OV-3
[13] = tested on: SR
[14] = tested on: SW-620
[15] = tested on: TK-10
[16] = tested on: U-251
[17] = tested on: UACC-62
[18] = tested on: HOP-92

| Compound | GI50 [1] | GI50 [2] | GI50 [3] | GI50 [4] | GI50 [5] | GI50 [6] | GI50 [7] | GI50 [8] | GI50 [9] | GI50 [10] | GI50 [11] | GI50 [12] | GI50 [13] | GI50 [14] | GI50 [15] | GI50 [16] | GI50 [17] | GI50 [18] |
| --- | --- | --- | --- | --- | --- | --- | --- | --- | --- | --- | --- | --- | --- | --- | --- | --- | --- | --- |
| N#CC(C#N)=Cc1cccc(Oc2ccccc2)c1 | 18.2 µM (inactive) | 20.6 µM (inactive) | 18.5 µM (inactive) | 26.8 µM (inactive) | 19.6 µM (inactive) | 20.1 µM (inactive) | 23 µM (inactive) | > 67.1 µM (inactive) | 19.1 µM (inactive) | 18.4 µM (inactive) | 13.8 µM (inactive) | 71.6 µM (inactive) | 8.93 µM (inactive) | 25.6 µM (inactive) | 31.7 µM (inactive) | 13.6 µM (inactive) | 22.3 µM (inactive) | – |
| N=C(N)NS(=O)(=O)c1ccc(NCc2c3ccccc3[n+]([O-])c3ccccc23)cc1 | 17 µM (inactive) | 5.64 µM (inactive) | 6.08 µM (inactive) | 19.8 µM (inactive) | 46.6 µM (inactive) | 20 µM (inactive) | 46.1 µM (inactive) | > 100 µM (inactive) | 11.8 µM (inactive) | – | 20.4 µM (inactive) | > 100 µM (inactive) | – | 16.4 µM (inactive) | > 100 µM (inactive) | 16.6 µM (inactive) | 22.5 µM (inactive) | 0.394 µM (active) |
| COc1ccc2c(c1)[n+]([O-])c(-c1ccc([N+](=O)[O-])cc1)c(N)[n+]2[O-] | > 100 µM (inactive) | 56.5 µM (inactive) | 57.5 µM (inactive) | 75.2 µM (inactive) | > 100 µM (inactive) | > 100 µM (inactive) | > 100 µM (inactive) | > 100 µM (inactive) | 78.2 µM (inactive) | > 100 µM (inactive) | 67 µM (inactive) | > 100 µM (inactive) | 18.7 µM (inactive) | > 100 µM (inactive) | – | 68.1 µM (inactive) | – | > 100 µM (inactive) |
| Nc1ccccc1S(=O)(=O)N(CC(=O)O)c1ccccc1 | > 100 µM (inactive) | > 100 µM (inactive) | > 100 µM (inactive) | > 100 µM (inactive) | > 100 µM (inactive) | > 100 µM (inactive) | – | > 100 µM (inactive) | > 100 µM (inactive) | > 100 µM (inactive) | > 100 µM (inactive) | > 100 µM (inactive) | – | > 100 µM (inactive) | > 100 µM (inactive) | > 100 µM (inactive) | > 100 µM (inactive) | > 100 µM (inactive) |
| O=c1cccccc1NCCCCNc1cccccc1=O | 54.8 µM (inactive) | > 100 µM (inactive) | 49.7 µM (inactive) | > 100 µM (inactive) | 55.7 µM (inactive) | 29.4 µM (inactive) | > 100 µM (inactive) | > 100 µM (inactive) | 41.4 µM (inactive) | – | 71.1 µM (inactive) | > 100 µM (inactive) | – | 67.6 µM (inactive) | > 100 µM (inactive) | > 100 µM (inactive) | 72.6 µM (inactive) | – |
| Oc1cccnc1/C=N/OCc1ccccc1 | > 100 µM (inactive) | > 100 µM (inactive) | > 100 µM (inactive) | > 100 µM (inactive) | > 100 µM (inactive) | > 100 µM (inactive) | > 100 µM (inactive) | > 100 µM (inactive) | > 100 µM (inactive) | > 100 µM (inactive) | – | > 100 µM (inactive) | – | > 100 µM (inactive) | > 100 µM (inactive) | > 100 µM (inactive) | > 100 µM (inactive) | – |
| O=C(CCc1nnc2s/c(=C\c3ccccc3[N+](=O)[O-])c(=O)n12)Nc1cc(Cl)c(Cl)cc1Cl | 35.8 µM (inactive) | 24.4 µM (inactive) | – | 69.5 µM (inactive) | 32.5 µM (inactive) | 48.2 µM (inactive) | 18.2 µM (inactive) | 34.1 µM (inactive) | 26.5 µM (inactive) | 21.1 µM (inactive) | 92.9 µM (inactive) | 56.6 µM (inactive) | – | > 10 µM (inactive) | 37.1 µM (inactive) | 16.9 µM (inactive) | 40.4 µM (inactive) | 18.7 µM (inactive) |
| CCC1(CN(C)C)CC/C(=C\c2ccc(OC)c(OC)c2)C1=O (centres undefined) | > 100 µM (inactive) | > 68.9 µM (inactive) | – | > 100 µM (inactive) | > 100 µM (inactive) | > 100 µM (inactive) | 97.9 µM (inactive) | > 69.5 µM (inactive) | > 100 µM (inactive) | > 100 µM (inactive) | > 100 µM (inactive) | > 100 µM (inactive) | < 0.01 µM (active) | > 100 µM (inactive) | > 100 µM (inactive) | > 100 µM (inactive) | > 69.3 µM (inactive) | > 100 µM (inactive) |
| CC(=O)NC(CCCCNCc1ccccc1)C(=O)NCc1ccccc1 (centres undefined) | > 100 µM (inactive) | > 100 µM (inactive) | – | > 100 µM (inactive) | > 100 µM (inactive) | > 100 µM (inactive) | > 100 µM (inactive) | > 100 µM (inactive) | > 100 µM (inactive) | > 100 µM (inactive) | > 100 µM (inactive) | > 100 µM (inactive) | – | > 100 µM (inactive) | > 100 µM (inactive) | > 100 µM (inactive) | > 100 µM (inactive) | > 100 µM (inactive) |
